Assay results reported in patent US20250027930A1, “SMALL MOLECULES FOR REPROGRAMING ANTI-TUMOR IMMUNITY OF T CELLS” (THE SCRIPPS RESEARCH INSTITUTE, priority 2021, published 2025).

Columns and labels:
[1] = system: OT-I splenocytes; assay: OT-I splenocyte culture with purine/pyrimidine pathway compounds; assay type: cell-based, mouse; settings: added together with N-Acetylneuraminic acid on day 3, analyzed day 5
Procedure: We therefore tested if purine and pyrimidine nucleotides have similar effects as N-Acetylneuraminic acid to help maintain less differentiated phenotypes of T cells during expansion. OT-I splenocytes were cultured with 500 nM […] peptide (OVA257-264) for three days at initial cell density of 1×10^6/mL to activate and expand the CD8+ T cell population. Different concentrations of the products or intermediates in purine or pyrimidine de novo synthesis pathways were added on day 3. The tested compounds include, e.g., guanosine, deoxyguanosine, adenosine, deoxyadenosine, inosine, xanthosine, orotidine, uridine, cytidine, deoxycytidine, thymidine, deoxythymidine, 5-Aminoimidazole-4-carboxamide ribonucleotide (AICAR), orotate, and dihydroorotate. The phenotype of expanded T cells were analyzed on day 5.

[2] = system: P14 CD8+ T cells; assay type: in vivo, mouse; settings: 14 dpi LCMV-Cl13; cells treated in vitro, vs untreated
[3] = system: P14 cells; assay: P14 splenocyte in vitro activation, re-stimulation and expansion; assay type: cell-based, mouse; settings: for Fold of proliferation, Normalized to W/O: P14 cells
[4] = system: OT-1 cells; assay: OT-I-Tcf7GFP splenocyte screen: proliferation and Tim3−TCF-1+ ratio; assay type: cell-based, mouse; settings: Day7; for Tim3^−TCF-1^+ ratio of CD8^+ T cells (%): w/o 2.6
Procedure: Cell number was recorded on day 3 and day 7. On day 7, cells were stained with anti-CD8a (PerCP-Cy5.5) and anti-Tim3 (BV421) antibodies for flow cytometry or plate reader analysis.
Because TCF1 expression positively correlates with T cell stemness, the greater signal of EGFP a T cell expresses, the less differentiated the T cell is. Furthermore, if the compound also facilitates T cells proliferation, there would be more T cells per well in comparison to the untreated control. Therefore, a compound that not only maintains TCF-1 expression but also facilitates T cell growth would produce the strongest green fluorescence intensity. […] GlcA stands for glucuronic acid.

[5] = system: B16-OVA tumor; assay type: in vivo, mouse
Procedure: (§1) Naïve splenocytes from OT-1 mice were stimulated in vitro with OVA257-264 (500 nM) and IL-2 (60 IU/mL) in the presence or absence of an added compound for 3 days at a density of 1 million/mL (100 uL/well in 96/well plate), then expanded for 4 days. On day 7, PD-1, Tim3 and TCF-1 expressions were assessed by flow cytometry by staining cells with anti-CD8a (PerCP-Cy5.5), anti-Tim3 (BV421) and anti-TCF-1 (AF488) antibodies. For adoptive transfer, 0.6M B16-OVA cells (6×10^5) were inoculated subcutaneously 3 to 5 days before transfer in C57BL/6. On the day of adoptive transfer, mice were irradiated with 5 Gy X-ray, randomized according to tumor size, and intravenously injected with 0.2-0.3M of CD8+OT-1 T cells (2×10^5) expanded under different conditions, followed by administration of 50000 IU IL-2 every 12 h for four days. In the control group, mice were injected with cell-free vehicle only. For assessment of adoptive transfer of OT-1 CD8+ T cells activated and expanded by contacting the cells with fructose, on day 9 after transfer, anti-PD-1 (100 ug/mouse) was administered to the mice that had received T cell transfer. For assessment of adoptive transfer of OT-1 CD8+ T cells activated and expanded by contacting cells with Neu5Ac, on day 14 and day 21 after transfer, anti-PD-1 (100 ug/mouse) was administered to the mice that had received T cell transfer. The tumor growth was monitored every 3 to 4 days by measuring tumor size. Percent survival was also monitored and recorded within a period of 40 days post treatment. To evaluate tumor infiltrating OT-1 T cells, 0.6M B16-OVA cells (6×10^5) were inoculated subcutaneously 3 to 5 days before transfer in C57BL/6. On the day of adoptive transfer, mice were irradiated with 5 Gy X-ray, randomized according to tumor size, and intravenously injected with 0.2-0.3M of CD8+OT-1 T cells (2×10^5) expanded under different conditions, followed by administration of 50000 IU IL-2 every 12 h for four days. Tumors were then isolated and assessed for percentage of OT-I T cells from the total CD8+ T cells and OT-1 T cell number per gram of tumor tissue. To evaluate apoptosis, Naïve OT-1 splenocytes were stimulated by OVA257-264 (500 nM) without IL-2 in the presence of absence of sugars for 5 days followed by using Annexin V Apoptosis detection kit (Biolegend). […] To evaluate other cellular characteristics, naïve OT-1 splenocytes were stimulated by OVA257-264 (500 nM) with IL-2 (60 IU/mL) in the presence or absence of sugars for 7 or 8 days. On day 7 or 8 cells were taken and analyzed by assessment of ROS, NADPH/NADP+ ratio, and GSH/GSSG ratio.

[6] = system: OT-1 CD8+ T cells; assay: OT-1 splenocyte activation and expansion, day 7 flow cytometry; assay type: cell-based, mouse
Procedure: Naïve splenocytes from OT-1 mice were stimulated in vitro with OVA257-264 (500 nM) and IL-2 (60 IU/mL) in the presence or absence of an added compound for 3 days at a density of 1 million/mL (100 uL/well in 96/well plate), then expanded for 4 days. On day 7, PD-1, Tim3 and TCF-1 expressions were assessed by flow cytometry by staining cells with anti-CD8a (PerCP-Cy5.5), anti-Tim3 (BV421) and anti-TCF-1 (AF488) antibodies. For adoptive transfer, 0.6M B16-OVA cells (6×10^5) were inoculated subcutaneously 3 to 5 days before transfer in C57BL/6. On the day of adoptive transfer, mice were irradiated with 5 Gy X-ray, randomized according to tumor size, and intravenously injected with 0.2-0.3M of CD8+OT-1 T cells (2×10^5) expanded under different conditions, followed by administration of 50000 IU IL-2 every 12 h for four days. In the control group, mice were injected with cell-free vehicle only. For assessment of adoptive transfer of OT-1 CD8+ T cells activated and expanded by contacting the cells with fructose, on day 9 after transfer, anti-PD-1 (100 ug/mouse) was administered to the mice that had received T cell transfer. For assessment of adoptive transfer of OT-1 CD8+ T cells activated and expanded by contacting cells with Neu5Ac, on day 14 and day 21 after transfer, anti-PD-1 (100 ug/mouse) was administered to the mice that had received T cell transfer. The tumor growth was monitored every 3 to 4 days by measuring tumor size. Percent survival was also monitored and recorded within a period of 40 days post treatment. To evaluate tumor infiltrating OT-1 T cells, 0.6M B16-OVA cells (6×10^5) were inoculated subcutaneously 3 to 5 days before transfer in C57BL/6. […] Tumors were then isolated and assessed for percentage of OT-I T cells from the total CD8+ T cells and OT-1 T cell number per gram of tumor tissue. […] On day 7 or 8 cells were taken and analyzed by assessment of ROS, NADPH/NADP+ ratio, and GSH/GSSG ratio.

[7] = system: TILs from B16-OVA tumor; assay type: cell-based, mouse; settings: day 7 rapid expansion; vs without sugars
Procedure: TILs from B16-OVA tumor were isolated on day10 after inoculation, and Tim-3^−TCF/GFP^+ and Tim-3^+TCF/GFP^− in tetramer positive population were collected by live cell sorting (FIG. 15A). Phenotype features of Tim-3^−TCF/GFP^+ (FIG. 15B) and Tim-3^+TCF/GFP^− (FIG. 15C) were analyzed on day 7 after rapid expansion with feeder cells (TILs/feeder cell: 1/200) in the presence or absence of sugars.
To investigate which population that sugars mainly changed on T cells, B16-OVA cancer cells (7×10^5 cells) were subcutaneously inoculated into the left or right flank of TCF7^GFP mice expressing an EGFP fluorescent reporter from the endogenous Tcf7 locus, which enable us to track the expression of TCF-1 in live cells.

[8] = system: OT-1 splenocytes; assay: Apoptosis (Annexin V) and IL-2 production of OT-1 splenocytes stimulated without IL-2; assay type: cell-based, mouse; settings: OVA257-264 500 nM without IL-2, 5 days
Procedure: as §1

[9] = system: OT-1 splenocytes; assay: ROS, NADPH/NADP+ ratio and GSH/GSSG ratio of OT-1 splenocytes; assay type: cell-based, mouse; settings: day 7 or 8, with IL-2; vs T cells not treated with sugar
Procedure: as §1

[10] = system: MC38 TSA-reactive CD8+ TILs; assay: Rapid expansion of TSA-reactive CD8+ TILs from MC38 tumors; assay type: cell-based, mouse
Procedure: Sugars were added at the beginning or during the expansion of the TILs, and kept till the end of expansion. On expansion day 9, phenotypes of the expanded T cells were assessed, and the cells were used for adoptive transfer (FIG. 6E). For adoptive transfer, 0.5 million cells (B16-OVA or MC38) were inoculated subcutaneously on each mouse on day 0, Listeria monocytogenes-OVA (LM-OVA) infection 0.5 million CFU/mice on day 1, and blood analysis was recorded on day 7.

[11] = Mus musculus, Splenocyte, 168 h, 60 mM, OT-1 cells, read-out: Proliferation fold, Normalized to W/O

SMILES: NC(=O)c1ncn([C@@H]2O[C@H](COP(=O)(O)O)[C@@H](O)[C@H]2O)c1N [AICAR, 5-Aminoimidazole-4-carboxamide ribonucleotide]
- cell proliferation [1]: without significant impact on cell proliferation

SMILES: O=C(CO)[C@@H](O)[C@H](O)[C@H](O)CO [Fructose, fructose]
- percentages and total numbers of expanded virus-specific P14 CD8+ T cells in the spleen and liver [2]: significantly higher
- Fold of proliferation, Normalized to W/O ([3]; Day6, 80 mM): 2.10 fold
- Tim3^−TCF-1^+ ratio of CD8^+ T cells (%) ([3]; Day6, 80 mM, w/o 55.0): 87.9%
- Fold of proliferation, Normalized to W/O ([3]; Day9, 80 mM): 2.94 fold
- Tim3^−TCF-1^+ ratio of CD8^+ T cells (%) ([3]; Day9, 80 mM, w/o 3.5): 48.9%
- Tim3^−TCF-1^+ ratio of CD8^+ T cells (%) ([4]; 80 mM): 43.9%
- activity at 80000 µM ([4]; Mus musculus, Splenocyte, 168 h, 80 mM, OT-1 cells, read-out: Proliferation fold, Normalized to W/O): 109%
- capabilities to control tumor growth ([5]; adoptive transfer of sugar-treated OT-1 T cells, vs untreated T cells): significantly better

SMILES: O=C[C@H](O)[C@@H](O)[C@@H](O)[C@H](O)CO [Galactose, galactose]
- Fold of proliferation, Normalized to W/O ([3]; Day6, 80 mM): 1.59 fold
- Tim3^−TCF-1^+ ratio of CD8^+ T cells (%) ([3]; Day6, 80 mM, w/o 55.0): 88.9%
- Fold of proliferation, Normalized to W/O ([3]; Day9, 80 mM): 1.87 fold
- Tim3^−TCF-1^+ ratio of CD8^+ T cells (%) ([3]; Day9, 80 mM, w/o 3.5): 37.4%
- T cell proliferation ([6]; 80 mM, OT-1 cells): significantly suppressed
- percentage of Tim3−TCF-1+ CD8+ T cells (in words) ([6]; OT-1 cells day 7, compared with fructose or sucrose): increased the percentage of Tim3−TCF-1+ CD8+ T cells but at a lower level

SMILES: O=C[C@H](O)[C@@H](O)[C@H](O)[C@H](O)C(=O)O [GlcA, glucuronic acid]
- Tim3^−TCF-1^+ ratio of CD8^+ T cells (%) ([4]; 60 mM): 65.3%
- activity at 60000 µM [4, 11]: 97%

SMILES: CC(=O)N[C@H]1C(O)O[C@H](CO)[C@@H](O)[C@@H]1O (stereo partly shown) [GlcNAc, N-Acetylglucosamine]
- maintenance of progenitor exhausted features of sorted Tim-3-TCF-GFP^+ TILs [7]: maintain more Tim-3^−TCF/GFP^+ cells
- Fold of proliferation, Normalized to W/O ([3]; Day6, 60 mM): 2.47 fold
- Tim3^−TCF-1^+ ratio of CD8^+ T cells (%) ([3]; Day6, 60 mM, w/o 55.0): 89.2%
- Fold of proliferation, Normalized to W/O ([3]; Day9, 60 mM): 1.44 fold
- Tim3^−TCF-1^+ ratio of CD8^+ T cells (%) ([3]; Day9, 60 mM, w/o 3.5): 21.2%
- Tim3^−TCF-1^+ ratio of CD8^+ T cells (%) ([4]; 60 mM): 28.8%
- activity at 60000 µM [4, 11]: 145%
- viability and apoptotic characteristics ([8]; vs T cells not treated with sugar): enhanced viability and differential apoptotic characteristics
- production of IL-2 ([8]; vs no sugar): significantly greater
- GSH/GSSG ratio [9]: greater
- NADPH/NADP+ ratio [9]: greater
- ROS [9]: significantly less
- cell surface anti-CLA (Cutaneous Lymphocyte-associated Antigen) staining [10]: significant increase
- tumor infiltrating OT-1 T cell numbers ([5]; treated T cells transferred to B16-OVA mice): increased
